# Experimental data as given in patent US9902696B2, “1,4-substituted piperidine derivatives” (Cephalon, Inc., priority 2015, dated 2018).
# Read-outs that look alike come from different tables or passages of the source.
# Columns and labels:
# [1] = target: T1, recombinant human baculovirus-expressed GST-tagged FASN (Homo sapiens, UniProt P49327); assay: FASN enzyme activity assay, fluorescence-based detection of CoA with CPM; assay type: biochemical; settings: 5 nM FASN, 150 μM NADPH, 10 μM acetyl-CoA, 25 μM malonyl-CoA, 90 minutes incubation
# T1 construct: GST
# T1 sequence (P49327 whole entry): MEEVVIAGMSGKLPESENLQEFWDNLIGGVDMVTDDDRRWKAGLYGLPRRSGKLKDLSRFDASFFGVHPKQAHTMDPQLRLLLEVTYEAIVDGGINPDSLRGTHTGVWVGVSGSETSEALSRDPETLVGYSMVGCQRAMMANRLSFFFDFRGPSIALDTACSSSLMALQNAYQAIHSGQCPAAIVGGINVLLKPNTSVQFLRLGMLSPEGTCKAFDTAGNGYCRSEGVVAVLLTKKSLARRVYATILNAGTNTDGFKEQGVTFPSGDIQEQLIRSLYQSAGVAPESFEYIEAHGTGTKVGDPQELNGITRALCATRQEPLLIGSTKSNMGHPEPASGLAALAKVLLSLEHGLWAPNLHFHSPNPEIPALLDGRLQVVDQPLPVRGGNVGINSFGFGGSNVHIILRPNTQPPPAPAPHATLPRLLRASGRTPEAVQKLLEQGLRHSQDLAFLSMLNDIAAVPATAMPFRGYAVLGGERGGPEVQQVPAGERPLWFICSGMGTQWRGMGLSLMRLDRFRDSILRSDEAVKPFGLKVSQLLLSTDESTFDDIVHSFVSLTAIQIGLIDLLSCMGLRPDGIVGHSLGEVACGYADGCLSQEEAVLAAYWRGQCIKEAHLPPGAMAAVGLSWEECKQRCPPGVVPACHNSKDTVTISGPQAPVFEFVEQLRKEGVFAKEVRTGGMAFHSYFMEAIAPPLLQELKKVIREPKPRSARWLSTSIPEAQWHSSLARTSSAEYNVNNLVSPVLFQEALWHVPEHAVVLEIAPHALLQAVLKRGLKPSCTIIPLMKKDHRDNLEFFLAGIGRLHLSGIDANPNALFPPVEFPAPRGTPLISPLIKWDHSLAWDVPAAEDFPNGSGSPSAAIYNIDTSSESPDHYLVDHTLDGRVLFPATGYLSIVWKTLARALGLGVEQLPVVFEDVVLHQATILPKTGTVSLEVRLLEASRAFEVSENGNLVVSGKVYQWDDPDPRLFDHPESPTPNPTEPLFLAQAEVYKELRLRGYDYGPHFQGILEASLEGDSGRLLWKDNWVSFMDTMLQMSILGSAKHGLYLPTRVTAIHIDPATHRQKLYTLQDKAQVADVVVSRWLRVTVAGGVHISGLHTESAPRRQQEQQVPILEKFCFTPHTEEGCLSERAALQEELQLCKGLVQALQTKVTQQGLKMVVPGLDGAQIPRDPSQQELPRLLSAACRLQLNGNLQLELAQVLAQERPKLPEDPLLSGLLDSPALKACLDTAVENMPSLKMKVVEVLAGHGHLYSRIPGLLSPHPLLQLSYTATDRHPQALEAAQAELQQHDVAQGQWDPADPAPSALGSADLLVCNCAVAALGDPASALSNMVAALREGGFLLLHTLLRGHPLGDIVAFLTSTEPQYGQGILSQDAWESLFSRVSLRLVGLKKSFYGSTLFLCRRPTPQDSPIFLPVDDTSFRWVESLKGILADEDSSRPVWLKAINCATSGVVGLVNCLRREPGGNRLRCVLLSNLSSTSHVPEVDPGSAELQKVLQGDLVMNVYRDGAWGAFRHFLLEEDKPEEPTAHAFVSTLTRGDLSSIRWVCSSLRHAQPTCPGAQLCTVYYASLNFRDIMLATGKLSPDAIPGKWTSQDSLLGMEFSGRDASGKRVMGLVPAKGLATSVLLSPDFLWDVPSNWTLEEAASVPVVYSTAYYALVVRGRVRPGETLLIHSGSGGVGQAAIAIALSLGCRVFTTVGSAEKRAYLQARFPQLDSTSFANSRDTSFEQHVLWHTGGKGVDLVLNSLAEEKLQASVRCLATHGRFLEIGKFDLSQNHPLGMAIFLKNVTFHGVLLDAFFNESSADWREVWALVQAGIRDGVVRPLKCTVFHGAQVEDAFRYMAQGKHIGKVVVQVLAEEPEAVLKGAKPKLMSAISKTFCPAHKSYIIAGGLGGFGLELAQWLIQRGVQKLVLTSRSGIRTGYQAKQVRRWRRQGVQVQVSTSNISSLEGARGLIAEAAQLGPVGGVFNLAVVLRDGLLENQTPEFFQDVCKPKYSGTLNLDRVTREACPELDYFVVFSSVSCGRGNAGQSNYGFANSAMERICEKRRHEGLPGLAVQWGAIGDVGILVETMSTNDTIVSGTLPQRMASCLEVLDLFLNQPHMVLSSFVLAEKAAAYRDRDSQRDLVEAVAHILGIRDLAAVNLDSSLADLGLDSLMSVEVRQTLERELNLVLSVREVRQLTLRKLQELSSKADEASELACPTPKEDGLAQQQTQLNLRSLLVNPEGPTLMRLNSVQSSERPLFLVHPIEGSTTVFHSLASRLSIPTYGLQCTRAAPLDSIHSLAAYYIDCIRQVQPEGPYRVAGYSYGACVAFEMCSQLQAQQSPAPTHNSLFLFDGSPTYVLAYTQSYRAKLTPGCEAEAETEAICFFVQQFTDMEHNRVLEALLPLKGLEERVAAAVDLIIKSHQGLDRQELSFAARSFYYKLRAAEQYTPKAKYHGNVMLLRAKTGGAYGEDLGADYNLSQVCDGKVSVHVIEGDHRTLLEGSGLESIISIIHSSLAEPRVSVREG
# Summary of the method: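 CoA product reacted with thiol-reactive CPM (diluted to 50 μM in 70% ethanol), read at 390/530 nm after 30 min. Preceding reaction: 90 min, 5 nM recombinant GST-FASN, 150 μM NADPH, 10 μM acetyl-CoA, 25 μM malonyl-CoA, pH 7.5 HEPES, 0.5% DMSO. IC50s fitted by nonlinear sigmoidal regression.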
# [2] = read-out: IC50 data for Additional Compounds of Formulae I-V(a): Activity
# [3] = read-out: IC50 data for Compounds of Formulae I-V/V(a): Activity
melting point [°C],"IC50 [1, 2] [nM]","IC50 [1, 3] [nM]",Structure (SMILES)
172,,100 to 999,"CCC(=O)N1CC(Oc2ccc(-c3cnc4ccccc4c3)cc2)C1 [Example 338, 1-(3-(4-(Quinolin-3-yl)phenoxy)azetidin-1-yl)propan-1-one]"
157,1 to 99,,"Cc1nccc2cc(-c3ccc(OC4CCN(C(=O)NCC(C)C)CC4)cc3)ccc12 [Example 580, N-Isobutyl-4-[4-(1-methyl-6-isoquinolyl)phenoxy]piperidine-1-carboxamide]"
162,,1000 to 10000,"CC(C)C(=O)N1CC(Oc2ccc(-c3cnc4ccccc4c3)cc2)C1 [Example 339, 2-Methyl-1-(3-(4-(quinolin-3-yl)phenoxy)azetidin-1-yl)propan-1-one]"
187,,1000 to 10000,"O=C(C1CC1)N1CC(Oc2ccc(-c3cnc4ccccc4c3)cc2)C1 [Example 340, Cyclopropyl(3-(4-(quinolin-3-yl)phenoxy)azetidin-1-yl)methanone]"
232,1 to 99,,"Cc1nccc2cc(-c3ccc(OC4CCN(C(N)=O)CC4)cc3)ccc12 [Example 581, 4-[4-(1-Methyl-6-isoquinolyl)phenoxy]piperidine-1-carboxamide]"
75,1 to 99,,"CCCONC(=O)N1CCC(Oc2ccc(-c3cnc4ccccc4c3C)cc2)CC1 [Example 589, 4-[4-(4-Methyl-3-quinolyl)phenoxy]-N-propoxy-piperidine-1-carboxamide]"
201,,1000 to 10000,"CC(C)CC(=O)N1CC(Oc2ccc(-c3cnc4ccccc4c3)cc2)C1 [Example 341, 3-Methyl-1-(3-(4-(quinolin-3-yl)phenoxy)azetidin-1-yl)butan-1-one]"
183 to 185,,1000 to 10000,"CCC(=O)N1CCC(Oc2ccc(-c3cnc4ccccc4c3)cc2Cl)CC1 [Example 191, 1-[4-(2-Chloro-4-quinolin-3-yl-phenoxy)-piperidin-1-yl]-propan-1-one]"
153,1 to 99,,"Cc1c(-c2ccc(OC3CCN(C(=O)NCC(C)C)CC3)cc2)cnc2ccccc12 [Example 590, N-Isobutyl-4-[4-(4-methyl-3-quinolyl)phenoxy]piperidine-1-carboxamide]"
162 to 166,,1000 to 10000,"CCC(=O)N1CCC(Oc2ncc(-c3cnc4ccccc4c3)cn2)CC1 [Example 143, 1-[4-(5-Quinolin-3-yl-pyrimidin-2-yloxy)-piperidin-1-yl]-propan-1-one]"
152,1 to 99,,"CCONC(=O)N1CCC(Oc2ccc(-c3cnc4ccccc4c3C)cc2)CC1 [Example 587, N-Ethoxy-4-[4-(4-methyl-3-quinolyl)phenoxy]piperidine-1-carboxamide]"
171,1 to 99,,"CCCNC(=O)N1CCC(Oc2ccc(-c3cnc4ccccc4c3C)cc2)CC1 [Example 591, 4-[4-(4-Methyl-3-quinolyl)phenoxy]-N-propyl-piperidine-1-carboxamide]"
80,1 to 99,,"Cc1c(-c2ccc(OC3CCN(C(=O)NOC(C)C)CC3)cc2)cnc2ccccc12 [Example 588, N-Isopropoxy-4-[4-(4-methyl-3-quinolyl)phenoxy]piperidine-1-carboxamide]"

# Further lines, the molecule ahead of its results:
Structure (SMILES),melting point [°C],"IC50 [1, 2] [nM]","IC50 [1, 3] [nM]"
"CCCNC(=O)N1CCC(Oc2ccc(-c3ccc4nccn4c3Cl)cc2)CC1 [Example 566, 4-[4-(5-Chloroimidazo[1,2-a]pyridin-6-yl)phenoxy]-N-propyl-piperidine-1-carboxamide]",184,1 to 99,
"CC(C)CNC(=O)N1CCC(Oc2ccc(-c3ccc4nccn4c3Cl)cc2)CC1 [Example 565, 4-[4-(5-Chloroimidazo[1,2-a]pyridin-6-yl)phenoxy]-N-isobutyl-piperidine-1-carboxamide]",201,100 to 999,
"CCCONC(=O)N1CCC(Oc2ccc(-c3ccc4cccnc4c3C)cc2)CC1 [Example 574, 4-[4-(8-Methyl-7-quinolyl)phenoxy]-N-propoxy-piperidine-1-carboxamide]",75,1 to 99,
"CC(C)NC(=O)N1CCC(Oc2ccc(-c3ccc4nccn4c3Cl)cc2)CC1 [Example 570, 4-[4-(5-Chloroimidazo[1,2-a]pyridin-6-yl)phenoxy]-N-isopropyl-piperidine-1-carboxamide]",220,1 to 99,
"O=C(NO)N1CCC(Oc2ccc(-c3ccc4nccn4c3Cl)cc2)CC1 [Example 575, 4-[4-(5-Chloroimidazo[1,2-a]pyridin-6-yl)phenoxy]piperidine-1-carbohydroxamic acid]",232,1 to 99,
"O=C(NCC1CC1)N1CCC(Oc2ccc(-c3ccc4nccn4c3Cl)cc2)CC1 [Example 568, 4-[4-(5-Chloroimidazo[1,2-a]pyridin-6-yl)phenoxy]-N-(cyclopropylmethyl)-piperidine-1-carboxamide]",183 to 185,1000 to 10000,
"CCCNC(=O)N1CCC(Oc2ccc(-c3ccc4c(C)nccc4c3)cc2)CC1 [Example 579, 4-[4-(1-Methyl-6-isoquinolyl)phenoxy]-N-propyl-piperidine-1-carboxamide]",181,100 to 999,
"NC(=O)N1CCC(Oc2ccc(-c3ccc4nccn4c3Cl)cc2)CC1 [Example 577, 4-[4-(5-Chloroimidazo[1,2-a]pyridin-6-yl)phenoxy]piperidine-1-carboxamide]",204,100 to 999,
"CCONC(=O)N1CCC(Oc2ccc(-c3ccc4c(C)nccc4c3)cc2)CC1 [Example 586, N-Ethoxy-4-[4-(1-methyl-6-isoquinolyl)phenoxy]piperidine-1-carboxamide]",208,1000 to 10000,
"Cc1nccc2cc(-c3ccc(OC4CCN(C(=O)NO)CC4)cc3)ccc12 [Example 585, 4-[4-(1-Methyl-6-isoquinolyl)phenoxy]piperidine-1-carbohydroxamic acid]",185,100 to 999,
"CCCCNC(=O)N1CCC(Oc2ccc(-c3ccc4nccn4c3Cl)cc2)CC1 [Example 563, N-Butyl-4-[4-(5-chloroimidazo[1,2-a]pyridin-6-yl)phenoxy]piperidine-1-carboxamide]",171 to 177,1 to 99,
"CC(C)ONC(=O)N1CCC(Oc2ccc(-c3ccc4nccn4c3Cl)cc2)CC1 [Example 569, 4-[4-(5-Chloroimidazo[1,2-a]pyridin-6-yl)phenoxy]-N-isopropoxy-piperidine-1-carboxamide]",175,100 to 999,
"CC(C)CCNC(=O)N1CCC(Oc2ccc(-c3ccc4nccn4c3Cl)cc2)CC1 [Example 572, 4-[4-(5-Chloroimidazo[1,2-a]pyridin-6-yl)phenoxy]-N-isopentyl-piperidine-1-carboxamide]",185,1000 to 10000,
